Values joined by “and” are separate entries in the source; they are usually repeats but may differ in a detail not shown here. Identical values can stand only once.
Columns and labels:
SDF-1/CXCR4 [1] = molecular target: T1, SDF-1/CXCR4 (Homo sapiens (Human), UniProt P61073); assay: cAMP assay (SDF-1/CXCR4-mediated cAMP reduction); type: cell-based; conditions: for concentration effective in counteracting/blocking SDF-1 function: cAMP reduction by SDF-1; for effect of SDF-1 on cAMP reduction: pre-treatment with compound, SDF-1 EC80 150 ng/ml
Description: Because the major signaling pathway of CXCR4/SDF-1 involves the pertussis toxin-sensitive G protein Gi, compounds described herein were tested as to whether they inhibited SDF-1/CXCR4-mediated cAMP reduction. The absorption increase at 665 nm was determined by varying the concentration of SDF-1 (0-200 ng/ml) to determine EC80 to be 150 ng/ml.

SDF-1/CXCR4 [2] = molecular target: T1, SDF-1/CXCR4; assay: IC50 vs SDF-1 (table of specific compounds); type: binding
[3] = molecular target: SDF-1 binding domain of CXCR4 (Homo sapiens (Human), UniProt P61073); assay: Competitive binding assay against biotin-labeled TN14003; conditions: competition with biotin-labeled TN14003; read-out: Effective concentrations (EC50)
Source text: Aa competitive binding assay using biotin-labeled TN14003 and streptavidin-conjugated rhodamine was developed to determine the binding efficiency of new chemical entities to the SDF-1 binding domain of CXCR4.

[4] = Initial pharmacokinetic study in mice; type: in vivo; conditions: intraperitoneally (IP) and orally
Source text: (§1) Oral bioavailability and sustained plasma exposure was consistently observed in multiple species for certain compounds.

[5] = Pharmacokinetic study in rats; type: in vivo; conditions: 10 mg/kg
Source text: as §1

[6] = Pharmacokinetic/pharmacodynamic study in cynomolgus monkeys; type: in vivo
Source text: as §1

In vitro Ames test = type: cell-based
CHO cells = assay: In vitro chromosome aberration screening test; type: cell-based; conditions: any dose level up to 2 mM, 4 hour with S9, 20 hour without S9
Description: (§2) Sufficiently scorable cells in the presence of S9 were available for 4 hour treatment and in the absence of S9 for a 20 hour treatment. Finally, MSX-122 was tested for its potential to interfere with the rapid delayed rectifier current (IKr) in human ventricles through the cardiac potassium channel, hERG since inhibition of IKr has been reported to be the most common cause of cardiac action potential prolongation by non-cardiac drugs.

hERG channel = hERG channel (Homo sapiens (Human), UniProt Q12809); assay: hERG channel current (IKr) inhibition; type: biochemical
Description: as §2

hERG channel (IKr) = hERG channel (IKr) (Homo sapiens (Human), UniProt Q12809); assay: hERG channel current (IKr) inhibition; type: biochemical; conditions: human; 1 μM; read-out: inhibition of hERG channel currents
Description: as §2

[7] = 28-day oral toxicology study in rats; type: in vivo; conditions: 250 and 600 mg/kg orally once per day for 28 days
Description: (§3) In initial studies, three groups of rats (5 males and 5 females per group) were dosed with 0, 250 and 600 mg/kg of MSX-122 orally once per day for 28 days. […] A 5-day repeat dose study was carried out in two non-naïve cynomolgus monkeys (1 male and 1 female) and two naïve cynomolgus monkeys (1 male and 1 female) dosed with 1,000 and 2,000 mg/kg, respectively, orally once per day for 5 days.

[8] = 5-day repeat dose study in cynomolgus monkeys; type: in vivo
Description: as §3

hot flashes = assay: Treatment of hot flashes in a patient; type: in vivo, human; conditions: person, 50 mg/day oral, after third treatment
Description: An approximately 70 kg person with a history of aggressive high grade serous carcinomy in their right fallopian tube, a complete hysterectomy and bilateral oophorectomy after previous treatments with VEGF-Trap and docetaxel, Carboplatin and taxol and doxil was treated with MSX-122, 50 mg/day oral.

[9] = cynomolgus monkeys, oral 5 and 10 mg/kg
[10] = cynomolgus monkeys, 1,000 and 2,000 mg/kg orally once per day for 5 days

T1 sequence (P61073 whole entry): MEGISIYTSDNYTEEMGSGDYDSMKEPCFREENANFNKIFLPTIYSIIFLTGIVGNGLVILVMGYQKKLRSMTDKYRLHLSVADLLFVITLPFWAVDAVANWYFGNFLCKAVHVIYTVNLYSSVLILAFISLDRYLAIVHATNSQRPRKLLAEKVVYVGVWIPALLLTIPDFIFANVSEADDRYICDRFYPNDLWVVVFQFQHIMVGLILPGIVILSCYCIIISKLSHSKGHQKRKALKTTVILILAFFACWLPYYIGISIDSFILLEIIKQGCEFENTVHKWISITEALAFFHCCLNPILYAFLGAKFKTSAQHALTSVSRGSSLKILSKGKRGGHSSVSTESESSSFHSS
Sequence of hERG channel (Q12809 whole entry): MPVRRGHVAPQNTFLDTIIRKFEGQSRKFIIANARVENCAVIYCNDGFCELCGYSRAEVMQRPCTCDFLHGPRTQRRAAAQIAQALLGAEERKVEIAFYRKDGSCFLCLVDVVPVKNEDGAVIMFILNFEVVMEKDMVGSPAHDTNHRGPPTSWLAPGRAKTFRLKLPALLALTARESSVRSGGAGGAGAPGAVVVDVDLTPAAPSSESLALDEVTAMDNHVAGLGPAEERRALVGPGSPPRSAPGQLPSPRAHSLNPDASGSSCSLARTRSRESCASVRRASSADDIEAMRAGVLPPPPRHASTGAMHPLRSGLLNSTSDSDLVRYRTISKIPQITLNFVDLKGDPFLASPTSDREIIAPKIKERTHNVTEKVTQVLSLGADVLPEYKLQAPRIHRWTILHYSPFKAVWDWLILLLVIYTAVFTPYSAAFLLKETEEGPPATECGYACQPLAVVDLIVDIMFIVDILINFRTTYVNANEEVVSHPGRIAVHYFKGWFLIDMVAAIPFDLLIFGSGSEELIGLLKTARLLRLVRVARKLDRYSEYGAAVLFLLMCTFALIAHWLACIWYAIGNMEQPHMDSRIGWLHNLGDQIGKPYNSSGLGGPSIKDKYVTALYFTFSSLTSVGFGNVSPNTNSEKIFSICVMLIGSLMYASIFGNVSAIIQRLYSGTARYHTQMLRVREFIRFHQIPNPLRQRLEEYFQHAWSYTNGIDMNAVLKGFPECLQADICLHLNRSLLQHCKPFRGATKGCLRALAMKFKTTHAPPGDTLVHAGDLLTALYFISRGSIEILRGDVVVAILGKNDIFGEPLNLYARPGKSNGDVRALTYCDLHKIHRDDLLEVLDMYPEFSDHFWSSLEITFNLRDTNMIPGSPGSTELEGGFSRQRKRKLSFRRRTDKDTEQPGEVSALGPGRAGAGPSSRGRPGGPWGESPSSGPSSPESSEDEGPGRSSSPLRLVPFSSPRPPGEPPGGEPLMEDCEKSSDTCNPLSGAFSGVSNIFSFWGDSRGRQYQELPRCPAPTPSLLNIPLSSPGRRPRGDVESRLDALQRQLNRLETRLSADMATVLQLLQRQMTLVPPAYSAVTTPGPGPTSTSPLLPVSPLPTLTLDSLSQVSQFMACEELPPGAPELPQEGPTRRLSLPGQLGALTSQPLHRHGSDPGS
Sequence of hERG channel (IKr) (Q12809 whole entry): as above
Sequence of SDF-1 binding domain of CXCR4 (P61073 whole entry, the tested form may be a part): as the sequence (P61073 whole entry) above

Compound: c1cc(CN2CCCNCCNCCCNCC2)ccc1CN1CCCNCCNCCCNCC1 [AMD-3100, reference compound]
- concentration effective in counteracting/blocking SDF-1 function (SDF-1/CXCR4 [1]): ~1000 nM
- effect of SDF-1 on cAMP reduction (SDF-1/CXCR4 [1]): blocked significantly in a dose-dependent manner

Compound: c1ccc(SCc2ccc(CSc3ccccc3)cc2)cc1 [MSX-211]
- IC50 (SDF-1/CXCR4 [2]): 1000 nM

Compound: Cc1c(C)c(CNc2ccccc2)c(C)c(C)c1CNc1ccccc1 [MSX-172]
- IC50 (SDF-1/CXCR4 [2]): 10 nM

Compound: c1ccc(NCCc2ccc(CCNc3ccccc3)cc2)cc1 [MSX-170]
- IC50 (SDF-1/CXCR4 [2]): < 100 nM

Compound: COc1ccccc1NCc1ccc(CNc2ccccc2OC)cc1 [MSX-206]
- IC50 (SDF-1/CXCR4 [2]): 10 nM

Compound: Clc1nc(Cl)nc(NCc2ccc(CNc3nc(Cl)nc(Cl)n3)cc2)n1 [MSX-190]
- IC50 (SDF-1/CXCR4 [2]): 10 nM

Compound: N=C(N)NCc1ccc(CNC(=N)N)cc1 [WZ5S]
- melting point: 278 to 281 °C (dec.)

Compound: Clc1ccc(NCc2ccc(CNc3ncccn3)cc2)nc1 [MSX-219]
- IC50 (SDF-1/CXCR4 [2]): 10 nM

Compound: O=C(Nc1ccccc1)c1cc(C(=O)Nc2ccccc2)cc(C(=O)Nc2ccccc2)c1 [WZ20]
- melting point: 318 to 320 °C

Compound: c1cncc(NCc2ccc(CNc3cccnc3)cc2)c1 [MSX-163]
- IC50 (SDF-1/CXCR4 [2]): 10 nM

Compound: O=C(O)c1cccc(NCc2ccc(CNc3cccc(C(=O)O)c3)cc2)c1 [MSX-214]
- IC50 (SDF-1/CXCR4 [2]): 100 nM

Compound: c1ccc(OCc2ccc(CNc3ncccn3)cc2)nc1 [MSX-212]
- IC50 (SDF-1/CXCR4 [2]): 100 nM

Compound: c1cnc(NCc2ccc(CNc3ncccn3)cc2)nc1 [MSX-122, N-(4-((pyrimidin-2-ylamino)methyl)benzyl)-pyrimidin-2-amine]
- EC50 [3]: 0.6 nM
- concentration effective in counteracting/blocking SDF-1 function (SDF-1/CXCR4 [1]): 10 nM
- effect of SDF-1 on cAMP reduction (SDF-1/CXCR4 [1]): blocked significantly in a dose-dependent manner
- blood levels [4]: sustained blood levels
- plasma levels ([5]; for 10 hours): above 100 ng/ml and > 342 nM
- Tmax ([5]; rat, plasma, oral, read-out: initial Tmax (converted)): ~30 min
- half lives [6, 9]: support once per day dosing
- plasma concentrations [6, 9]: micromolar
- pharmacokinetics / dose proportionality of plasma levels ([6]; female cynomolgus monkeys, oral 1, 5 and 10 mg/kg): sustained pharmacokinetics with plasma levels that were relatively dose proportional
- mutagenicity (In vitro Ames test): no evidence of mutagenicity
- structural or numerical chromosome aberrations (CHO cells): no statistically significant increase in structural or numerical chromosome aberrations
- inhibitory effect on hERG channel currents (hERG channel): do not exert a significant inhibitory effect
- inhibition at 1 µM (hERG channel (IKr)): 0.2%
- signs or symptoms of toxicity during the study [7]: No signs or symptoms of toxicity
- toxicity upon termination from blood serum chemistry or gross necropsy [7]: no toxicity was observed
- plasma concentrations maintained throughout the study ([7]; after day 1): micromolar
- Cmax ([7]; both sexes, rat, in vivo, po): 2000 ng/mL to 4000 ng/mL and 6.8 µM to 13.6 µM
- Cmax ([8]; both sexes, cynomolgus monkey, in vivo, po, cynomolgus monkeys, 1,000 and 2,000 mg/kg orally once per day for 5 days): 5.1 µM to 12 µM and 1500 ng/mL to 3500 ng/mL
- gross necropsy ([8]; cynomolgus monkeys dosed at 2000 mg/kg): no abnormalities or signs of toxicity
- blood serum chemistry [8, 10]: no abnormalities
- plasma concentrations maintained throughout the study [8, 10]: micromolar
- signs or symptoms of toxicity [8, 10]: No drug-related signs or symptoms of toxicity
- clinical observations (stool) ([8]; cynomolgus monkeys, 1,000 and 2,000 mg/kg, may have been caused by excipients): loose and watery stool in a subset of the animals
- hot flashes (hot flashes): resolved greatly

Compound: c1ccc(NCc2ccc(CNc3ccccc3)c3ccccc23)cc1 [MSX-175]
- IC50 (SDF-1/CXCR4 [2]): > 100 nM

Compound: c1ccc(NCc2ccc(CNc3ccccc3)cc2)cc1 [WZ13]
- melting point: 126 to 127 °C

Compound: c1ccc(NCCNCc2ccc(CNCCNc3ccccc3)cc2)cc1 [WZ8]
- melting point: 42 to 43 °C

Compound: c1ccc(OCc2ccc(CNc3ncccn3)cc2)cc1 [MSX-209]
- IC50 (SDF-1/CXCR4 [2]): 10 nM

Compound: COCc1ccc(CNc2ncccn2)cc1 [MSX-208]
- IC50 (SDF-1/CXCR4 [2]): 100 nM

Compound: Cc1ccc(NCc2ccc(CNc3ccc(C)cc3)cc2)cc1 [MSX-139]
- IC50 (SDF-1/CXCR4 [2]): 10 nM
